{
  "source": "patent US10626100B2",
  "about": "“Selective HDAC6 inhibitors” (The Trustees of Columbia University in the City of New York, priority 2013, dated 2020)",
  "key": {"[1]": {"test_system": "androgen-dependent CWR22 human prostate cancer xenograft", "assay": "CWR22 human prostate cancer xenograft in nude mice", "type": "in vivo"}, "HDAC1": {"biological_target": "HDAC1 (Homo sapiens, UniProt Q13547)", "sequence (Q13547 whole entry)": "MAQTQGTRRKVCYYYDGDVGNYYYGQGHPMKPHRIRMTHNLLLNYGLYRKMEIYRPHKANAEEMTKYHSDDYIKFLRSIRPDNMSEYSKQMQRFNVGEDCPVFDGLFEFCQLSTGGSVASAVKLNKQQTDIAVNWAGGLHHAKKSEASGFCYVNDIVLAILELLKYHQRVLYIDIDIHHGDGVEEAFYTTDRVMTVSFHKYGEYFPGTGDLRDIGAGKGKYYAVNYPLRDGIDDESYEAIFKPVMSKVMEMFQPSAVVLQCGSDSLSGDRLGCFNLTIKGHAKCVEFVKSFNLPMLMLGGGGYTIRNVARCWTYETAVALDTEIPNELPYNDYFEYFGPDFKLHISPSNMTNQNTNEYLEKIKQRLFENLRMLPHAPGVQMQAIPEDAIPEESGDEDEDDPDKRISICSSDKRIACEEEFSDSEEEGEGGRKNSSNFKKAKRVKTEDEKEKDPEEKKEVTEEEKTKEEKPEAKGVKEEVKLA", "assay": "Inhibition of recombinant HDAC1", "type": "biochemical", "details": "read-out: IC50 (nM) HCAC1"}, "[2]": {"test_system": "acetylated alpha-tubulin and acetylated histone H3 in spleen", "assay": "Acetylation of alpha-tubulin and histones in spleen of treated mice", "type": "in vivo", "experimental": "FIG. 7. Immunoblots of spleens harvested at indicated times after the last injection. Immune-deficient mice were treated daily by 30 μL intraperitoneal injection with indicated doses of compound 8. DMSO is the vehicle control. Western blots of acetylated alpha-tubulin (Acet-Tub) and acetylated histone H3 (Acet-H3). Western blots of HSP90 and total histone H3 (Total-H3) are loading controls.\n(§1) Recombinant HDAC1 and HDAC6 are used to evaluate the selective inhibitory potency of each compound. Cell based assays: Normal cells (Human Foreskin Fibroblast cells), LNCaP (human prostate cancer cells), MCF-7 (human breast cancer cells, A549 (human adenocarcinoma of lung cells) and ARP-1 (human multiple myeloma cells) are used in these assays. Cells were cultured for up to 72 hr without and with the potential HDAC6-selective inhibitor. SAHA was used as a control. Cell number and cell viability were determined by enumeration. Proteins were extracted from cells and assayed for accumulation of acetylated tubulin and acetylated histones. All methods are described in Namdar et al., PNAS, 2010, 107:20003-8. In vivo animal studies: Potential HDAC6 inhibitor compounds are further assayed by administration to mice for up to 5 days with daily injections. Animals are sacrificed and tissues are analyzed for accumulation of acetylated tubulin and acetylated histones.\nToxicity of compound 8 in mice was determined. […] Mice were intraperitoneally injected daily for 5 days with 100, 200, or 300 mg/kg compound 8. […] The effects of compound 8 on the acetylation of alpha-tubulin and histones in the spleen isolated from mice treated with compound 8 were analyzed at three time points after the administration of the drug."}, "[3]": {"test_system": "acetylated alpha-tubulin and acetylated histone H3 in HFS (human foreskin fibroblast) cells", "assay": "Accumulation of acetylated proteins in HFS normal cells (western blot)", "type": "cell-based", "experimental": "(§2) FIG. 5. Western blots of acetylated alpha-tubulin (Acet-Tub) and acetylated histone H3 (Acet-H3) in HFS (normal) and LNCaP (transformed) cells treated with compound 8 at 8, 16, 32, and 64 μM for 24 h. Western blots of GAPDH and total histone H3 (Total-H3) are loading controls.\nas §1"}, "[4]": {"test_system": "acetylated alpha-tubulin and histones in CWR22 tumors and spleen", "assay": "Acetylated lysine patterns in CWR22 tumors and spleen", "type": "in vivo, nude mice", "text": "Tumors and spleen are removed from the animals, and histones and proteins are extracted for the detection of acetylated lysine patterns."}, "HDAC6": {"biological_target": "T1, HDAC6 (Homo sapiens, UniProt Q9UBN7)", "T1 sequence (Q9UBN7 1-1215)": "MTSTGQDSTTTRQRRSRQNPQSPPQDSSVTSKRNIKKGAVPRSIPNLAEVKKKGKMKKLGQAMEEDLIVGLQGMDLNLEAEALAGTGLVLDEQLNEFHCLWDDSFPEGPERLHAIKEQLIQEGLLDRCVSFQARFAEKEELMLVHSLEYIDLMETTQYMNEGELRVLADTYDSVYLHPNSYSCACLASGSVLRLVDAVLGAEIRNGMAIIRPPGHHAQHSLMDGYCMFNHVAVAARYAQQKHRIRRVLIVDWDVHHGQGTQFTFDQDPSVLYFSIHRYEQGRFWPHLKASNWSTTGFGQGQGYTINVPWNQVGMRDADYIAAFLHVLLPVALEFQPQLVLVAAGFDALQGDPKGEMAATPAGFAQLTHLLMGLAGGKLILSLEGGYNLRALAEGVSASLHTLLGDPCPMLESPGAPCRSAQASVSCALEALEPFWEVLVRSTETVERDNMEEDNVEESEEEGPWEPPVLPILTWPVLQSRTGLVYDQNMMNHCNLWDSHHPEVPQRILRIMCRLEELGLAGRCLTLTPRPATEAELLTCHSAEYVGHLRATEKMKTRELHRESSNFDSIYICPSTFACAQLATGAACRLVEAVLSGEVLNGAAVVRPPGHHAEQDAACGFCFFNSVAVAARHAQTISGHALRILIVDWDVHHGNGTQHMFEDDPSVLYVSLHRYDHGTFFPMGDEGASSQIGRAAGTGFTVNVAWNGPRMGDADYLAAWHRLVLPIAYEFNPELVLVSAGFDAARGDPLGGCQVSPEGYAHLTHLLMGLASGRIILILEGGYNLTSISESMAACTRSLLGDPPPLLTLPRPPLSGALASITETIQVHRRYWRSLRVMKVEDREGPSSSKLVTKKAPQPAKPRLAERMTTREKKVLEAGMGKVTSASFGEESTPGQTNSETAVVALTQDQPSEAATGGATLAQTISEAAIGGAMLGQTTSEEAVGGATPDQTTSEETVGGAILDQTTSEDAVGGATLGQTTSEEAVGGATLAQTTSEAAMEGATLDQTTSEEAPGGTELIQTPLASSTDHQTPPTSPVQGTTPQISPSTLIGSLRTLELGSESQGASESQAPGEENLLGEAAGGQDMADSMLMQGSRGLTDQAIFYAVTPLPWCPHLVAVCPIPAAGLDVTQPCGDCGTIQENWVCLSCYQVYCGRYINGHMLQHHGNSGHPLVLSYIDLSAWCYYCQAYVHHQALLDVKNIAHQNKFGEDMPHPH", "assay": "Inhibition of recombinant HDAC6"}, "HFS (normal) cells": {"test_system": "HFS (normal) cells", "assay": "Combination with anti-cancer agents in HFS cells", "type": "cell-based, human", "details": "compound 8 alone or in combination with etoposide, paclitaxel, or SAHA, 72 h"}, "[5]": {"test_system": "acetylated alpha-tubulin and acetylated histone H3 in LNCaP (human prostate cancer cells)", "assay": "Accumulation of acetylated proteins in LNCaP cells (western blot)", "type": "cell-based", "experimental": "FIG. 2. Blot showing accumulation of acetylated alpha-tubulin and acetylated histone H3 in LNCaP (human prostate cancer cells) cultured with compounds 8 or 11. GADPH used as loading control.\nas §2, §1"}, "[6]": {"details": "21 days, daily 300 mg/kg compound 8 or weekly 3 mg/kg etoposide alone"}, "[7]": {"details": "HFS cells, 8 μM to 64 μM, 24 h, FIG. 5"}, "[8]": {"details": "normal cells, concentrations as high as 16 μM"}, "[9]": {"details": "LNCaP cells, 8 μM to 64 μM, 24 h, FIG. 5"}, "[10]": {"details": "transformed cells, concentrations as high as 16 μM"}},
  "note": "Entries after “also recorded” stand apart in the source; their conditions may differ.",
  "data": [
    {"smiles": "O=C(NO)c1ccc(CN(CCO)C(=O)Cc2ccccc2)cc1", "note": "[Compound 8, N-hydroxy-4-((N-(2-hydroxyethyl)-2-phenylacetamido)methyl) benzamide]", "values": [
      {"measurement": "growth of established CWR22 tumors, single agent", "setting": "[1]; [6]", "result": "no significant suppression of the growth"},
      {"measurement": "weight loss, single agent", "setting": "[1]; [6]", "result": "no weight loss"},
      {"measurement": "growth of established CWR22 tumors, combination with etoposide", "setting": "[1]; daily compound 8 and weekly etoposide, versus vehicle-treated control animals", "result": "causes suppression of the growth of established CWR22 tumors; also recorded: significantly enhances the anti-tumor effect of etoposide"},
      {"measurement": "IC50", "setting": "HDAC1", "result": 1130, "unit": "nM"},
      {"measurement": "accumulation of acetylated tubulin in the spleen", "setting": "[2]; 1.5 h after injection, FIG. 7", "result": "increased accumulation of acetylated tubulin"},
      {"measurement": "accumulation of acetylated tubulin in the spleen", "setting": "[2]; 5 h after injection", "result": "reduced to the level seen in vehicle-treated controls"},
      {"measurement": "accumulation of acetylated histones in the spleen", "setting": "[2]; FIG. 7", "result": "no detectable accumulation of acetylated histones"},
      {"measurement": "accumulation of acetylated alpha-tubulin", "setting": "[3]; [7]", "result": "caused accumulation of acetylated alpha-tubulin"},
      {"measurement": "accumulation of acetylated histones", "setting": "[3]; [7]", "result": "not of acetylated histones"},
      {"measurement": "accumulation of acetylated PRX", "setting": "[3]; [8]", "result": "selectively induced accumulation of acetylated alpha-tubulin and acetylated PRX"},
      {"measurement": "accumulation of acetylated alpha-tubulin", "setting": "[3]; [8]", "result": "selectively induced accumulation of acetylated alpha-tubulin and acetylated PRX"},
      {"measurement": "accumulation of acetylated histones", "setting": "[3]; [8]", "result": "not of acetylated histones"},
      {"measurement": "accumulation of acetylated alpha-tubulin in CWR22 tumors and spleen, combination with etoposide", "setting": "[4]; combination of compound 8 and etoposide", "result": "increased accumulation of acetylated alpha-tubulin"},
      {"measurement": "accumulation of histones in tumors, combination with etoposide", "setting": "[4]; combination of etoposide and compound 8", "result": "Increased levels of accumulation of histones"},
      {"measurement": "accumulation of histones in tumors, single agent", "setting": "[4]; mice injected with compound 8 alone or etoposide", "result": "not with compound 8 alone"},
      {"measurement": "accumulation of acetylated alpha-tubulin in CWR22 tumors and spleen, single agent", "setting": "[4]; mice treated with compound 8 or etoposide", "result": "increased accumulation of acetylated alpha-tubulin"},
      {"measurement": "potency as inhibitor of HDAC6 compared with SAHA", "setting": "HDAC6", "result": "one hundred fold more potent"},
      {"measurement": "IC50", "setting": "HDAC6; read-out: IC50 (nM) HCAC6, recombinant HDAC6", "result": 31, "unit": "nM"},
      {"measurement": "cell growth", "setting": "HFS (normal) cells", "result": "inhibits cell growth"},
      {"measurement": "cell viability", "setting": "HFS (normal) cells", "result": "does not induce loss of cell viability"},
      {"measurement": "accumulation of acetylated alpha-tubulin", "setting": "[5]; [9]", "result": "caused accumulation of acetylated alpha-tubulin"},
      {"measurement": "accumulation of acetylated histones", "setting": "[5]; [9]", "result": "not of acetylated histones"},
      {"measurement": "accumulation of acetylated histones (H3)", "setting": "[5]; LNCaP cells, FIG. 2", "result": "did not cause accumulation of actylated histones; also recorded: without induction of H3 acetylation"},
      {"measurement": "accumulation of acetylated α-tubulin", "setting": "[5]; LNCaP cells, FIG. 2", "result": "caused the accumulation of acetylated α-tubulin; also recorded: significant levels of tubulin acylation were present"},
      {"measurement": "accumulation of acetylated alpha-tubulin", "setting": "[5]; [10]", "result": "selectively induced accumulation of acetylated alpha-tubulin and acetylated PRX"},
      {"measurement": "accumulation of acetylated histones", "setting": "[5]; [10]", "result": "not of acetylated histones"}
    ]}
  ]
}
